Measured values from PubChem BioAssay (NCI).
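Test compounds were applied to cells in 96-well plates for 48 hours at 5 doses. TGI denotes the concentration required for complete inhibition of growth.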

Experiments:
Assay in all cases: DTP human tumour cell line panel, 48 h
[1] = system: 786-0 renal
[2] = system: A498 renal
[3] = system: A549 NSCLC
[4] = system: ACHN renal
[5] = system: BT-549 breast
[6] = system: CAKI-1 renal
[7] = system: CCRF-CEM leukemia
[8] = system: COLO 205 colon
[9] = system: DU-145 prostate
[10] = system: EKVX NSCLC
[11] = system: HCT-116 colon
[12] = system: HCT-15 colon
[13] = system: HL-60(TB) leukemia
[14] = system: HOP-62 NSCLC
[15] = system: HOP-92 NSCLC
[16] = system: HS 578T breast
[17] = system: HT29 colon
[18] = system: IGROV1 ovarian
[19] = system: K-562 leukemia
[20] = system: KM12 colon
[21] = system: LOX IMVI melanoma
[22] = system: M14 melanoma
[23] = system: MALME-3M melanoma
[24] = system: MCF7 breast
[25] = system: MDA-MB-231 breast
[26] = system: MDA-MB-435
[27] = system: MDA-N
[28] = system: MOLT-4 leukemia
[29] = system: NCI-H226 lung
[30] = system: NCI-H460 lung
[31] = system: NCI-H522 lung
[32] = system: NCI/ADR-RES ovarian
[33] = system: OVCAR-3 ovarian
[34] = system: OVCAR-4 ovarian
[35] = system: OVCAR-5 ovarian
[36] = system: OVCAR-8 ovarian
[37] = system: PC-3 prostate
[38] = system: RPMI-8226 leukemia
[39] = system: RXF 393 renal
[40] = system: SF-268 CNS
[41] = system: SF-295 CNS
[42] = system: SF-539 CNS
[43] = system: SK-MEL-2 melanoma
[44] = system: SK-MEL-28 melanoma
[45] = system: SK-MEL-5 melanoma
[46] = system: SK-OV-3 ovarian
[47] = system: SN12C renal
[48] = system: SNB-19 CNS
[49] = system: SNB-75 CNS
[50] = system: SR leukemia
[51] = system: T-47D breast
[52] = system: TK-10 renal
[53] = system: U251 CNS
[54] = system: UACC-257 melanoma
[55] = system: UO-31 renal
[56] = system: HCC-2998 colon
[57] = system: NCI-H23 lung
[58] = system: SW-620 colon
[59] = system: UACC-62 melanoma

Structure (SMILES): CC(C)(C)c1cc(C(C)(C)C)c2sc(=O)oc2c1O
- TGI [1]: 38.1 µM
- TGI [2]: 27.3 µM
- TGI [3]: 27.6 µM
- TGI [4]: 24.8 µM
- TGI [5]: 32.9 µM
- TGI [6]: 25.3 µM
- TGI [7]: > 100 µM
- TGI [8]: 33.7 µM
- TGI [9]: 32.8 µM
- TGI [10]: 29.2 µM
- TGI [11]: 29.8 µM
- TGI [12]: 25.3 µM
- TGI [13]: 19.6 µM
- TGI [14]: 33.2 µM
- TGI [15]: 30.8 µM
- TGI [16]: 31.4 µM
- TGI [17]: 33.2 µM
- TGI [18]: 27.7 µM
- TGI [19]: 30.4 µM
- TGI [20]: 27.9 µM
- TGI [21]: 27.7 µM
- TGI [22]: 31.6 µM
- TGI [23]: 30.2 µM
- TGI [24]: 28 µM
- TGI [25]: 33.4 µM
- TGI [26]: 25.6 µM
- TGI [27]: 29.9 µM
- TGI [28]: > 100 µM
- TGI [29]: 36.2 µM
- TGI [30]: 18.8 µM
- TGI [31]: 26.7 µM
- TGI [32]: 30.1 µM
- TGI [33]: 25.9 µM
- TGI [34]: 27.6 µM
- TGI [35]: 33.4 µM
- TGI [36]: 31.2 µM
- TGI [37]: 28 µM
- TGI [38]: > 100 µM
- TGI [39]: 26.3 µM
- TGI [40]: 26.4 µM
- TGI [41]: 23.9 µM
- TGI [42]: 30.9 µM
- TGI [43]: 29.1 µM
- TGI [44]: 32.5 µM
- TGI [45]: 27.9 µM
- TGI [46]: 35.3 µM
- TGI [47]: 27.1 µM
- TGI [48]: 32.2 µM
- TGI [49]: 27.1 µM
- TGI [50]: 63.6 µM
- TGI [51]: 19.8 µM
- TGI [52]: 24.1 µM
- TGI [53]: 27.8 µM
- TGI [54]: 20.2 µM
- TGI [55]: 23.8 µM

Structure (SMILES): Cc1cc(=O)[nH]c2c1C(=O)c1c(C)cc(=O)n(C)c1C2=O
- TGI [1]: 0.182 µM
- TGI [2]: 0.36 µM
- TGI [3]: 0.399 µM
- TGI [4]: 0.223 µM
- TGI [5]: 0.0519 µM
- TGI [6]: 0.258 µM
- TGI [7]: > 10 µM
- TGI [8]: 0.037 µM
- TGI [9]: 0.0479 µM
- TGI [10]: 0.366 µM
- TGI [56]: 0.058 µM
- TGI [11]: 0.253 µM
- TGI [12]: 0.264 µM
- TGI [13]: 0.374 µM
- TGI [14]: 0.0999 µM
- TGI [16]: 0.154 µM
- TGI [17]: 0.208 µM
- TGI [18]: 0.437 µM
- TGI [19]: > 10 µM
- TGI [20]: 0.192 µM
- TGI [21]: 0.26 µM
- TGI [22]: 0.0282 µM
- TGI [23]: 0.00494 µM
- TGI [24]: 0.0356 µM
- TGI [25]: 0.789 µM
- TGI [26]: 0.0275 µM
- TGI [27]: 0.0331 µM
- TGI [28]: > 3.56 µM
- TGI [29]: 0.0777 µM
- TGI [57]: 0.03 µM
- TGI [30]: 0.364 µM
- TGI [31]: 0.187 µM
- TGI [32]: 0.259 µM
- TGI [33]: 0.151 µM
- TGI [34]: 0.378 µM
- TGI [35]: 0.31 µM
- TGI [36]: 0.207 µM
- TGI [37]: 0.391 µM
- TGI [38]: > 9.41 µM
- TGI [39]: 0.281 µM
- TGI [40]: 0.465 µM
- TGI [41]: 0.31 µM
- TGI [42]: 0.0369 µM
- TGI [43]: 0.0592 µM
- TGI [44]: 0.0351 µM
- TGI [45]: 0.0284 µM
- TGI [46]: 0.432 µM
- TGI [47]: 0.195 µM
- TGI [48]: 0.0358 µM
- TGI [49]: 0.0325 µM
- TGI [50]: > 10 µM
- TGI [58]: 0.179 µM
- TGI [51]: 0.848 µM
- TGI [52]: 0.418 µM
- TGI [53]: 0.242 µM
- TGI [54]: 0.0307 µM
- TGI [59]: 0.0332 µM
- TGI [55]: 0.318 µM

Structure (SMILES): CC(C)(C)C(=O)C(N)C(=O)C(C)(C)C
- TGI [1]: > 100 µM
- TGI [3]: > 100 µM
- TGI [4]: > 100 µM
- TGI [5]: > 100 µM
- TGI [6]: > 100 µM
- TGI [7]: > 100 µM
- TGI [8]: > 100 µM
- TGI [9]: > 100 µM
- TGI [56]: > 100 µM
- TGI [11]: > 100 µM
- TGI [12]: > 100 µM
- TGI [13]: > 100 µM
- TGI [14]: > 100 µM
- TGI [15]: > 100 µM
- TGI [16]: > 100 µM
- TGI [19]: > 100 µM
- TGI [20]: > 100 µM
- TGI [21]: > 100 µM
- TGI [22]: > 100 µM
- TGI [23]: > 100 µM
- TGI [24]: > 100 µM
- TGI [25]: > 100 µM
- TGI [26]: > 100 µM
- TGI [27]: > 100 µM
- TGI [28]: > 100 µM
- TGI [30]: > 100 µM
- TGI [31]: > 100 µM
- TGI [32]: > 100 µM
- TGI [34]: > 100 µM
- TGI [35]: > 100 µM
- TGI [36]: > 100 µM
- TGI [37]: > 100 µM
- TGI [38]: > 100 µM
- TGI [39]: > 100 µM
- TGI [40]: > 100 µM
- TGI [41]: > 100 µM
- TGI [42]: > 100 µM
- TGI [43]: > 100 µM
- TGI [44]: > 100 µM
- TGI [45]: > 100 µM
- TGI [46]: > 100 µM
- TGI [47]: > 100 µM
- TGI [48]: > 100 µM
- TGI [49]: > 100 µM
- TGI [50]: > 100 µM
- TGI [58]: > 100 µM
- TGI [51]: > 100 µM
- TGI [52]: > 100 µM
- TGI [53]: > 100 µM
- TGI [54]: > 100 µM
- TGI [59]: > 100 µM
- TGI [55]: > 100 µM
